{
  "source": "patent US7579152B2",
  "about": "“SENP1 as a marker of cancer development and target for cancer therapy” (Board of Regents, the University of Texas System, priority 2004, dated 2009)",
  "key": {"[1]": {"test_system": "cyclin D1 promoter", "assay": "Cyclin D1 promoter CD1 (-1745/+134) luciferase reporter assay in PC-3 cells", "format": "cell-based", "settings": "TSA for 12 hrs at 24 hr after transfection", "experimental": "At 24 hr after transfection, cells were treated different dosage TSA as indicated for 12 hrs and then luciferase activity were determined. All luciferase activity was normalized to individually determined β-gal activity. […] After 48 hr of transfection, the Luciferase activity was measured. All luciferase activity was normalized to individually determined β-gal activity. […] All luciferase activity was normalized to individually determined β-gal activity.\nEGFP-SENP1 and EGFP-SENP1mutant (C603A) were prepared by standard cloning and PCR based mutagenesis. CD1 (−1745/+134), CD1 (−963/+134), CD1 (−66/+134), and, CD1 (−66/+134) mutant-driven luciferase plasmids were prepared by PCR cloning strategy (Albanese et al., 1995; Tetsu et al., 1999). […]\nTo further confirm the role of SENP1 in cyclin D1 transcription, we performed a cyclin D1 promoter-driven luciferase reporter assay (FIG. 16A) as described by Cheng et al, 2004. CD1 (−1745/+134), which corresponded to the original fragment of cyclin D1 5′ sequence cloned from the PRAD1 breakpoint, was transfected into PC-3 cells and its response to SENP1 was measured."}, "[2]": {"test_system": "SENP1", "assay": "SENP1 mRNA levels by quantitative real-time PCR in LNCaP cells after androgen/cytokine treatment", "format": "cell-based, human", "settings": "for SENP1 expression enhanced (mRNA, QRT-PCR) / Increase in SENP1 levels: R1881 20 nM; for Increase in SENP1 levels: IL-6 25 ng/mL, or both; for SENP1 levels on cytokine treatment: 25 ng/mL, 24 or 48 hr", "experimental": "(§1) LNCaP, PC-3, and DU145 cells were maintained in RPMI 1640 media containing 10% fetal bovine serum and 1% penicillin/streptomycin. The RWPE2 were maintained in Keratinocyte-Serum Free medium supplemented with 5 ng/ml human recombinant EGF and 0.05 mg/ml bovine pituitary extract. For hormone/cytokine treatment, the maintenance media was replaced with phenol red-free RPMI 1640 media containing 10% charcoal-stripped bovine serum and 1% penicillin/streptomycin.\n(§2) Cells (LNCaP and/or PC-3) were prepared for RNA isolation using the RNA-Bee Reagent (Tel-Test Inc, Friendswood, Tex.) according to manufacture's instructions with stock samples diluted to the appropriate concentrations with the DEPC-treated water.\n(§3) The TaqMan Master Mix Reagents (Applied Biosystems, Branchburg, N.J.) were utilized for the quantitative real-time PCR (QRT-PCR) reaction. Primers for either SENP1 ([…]; forward: SEQ. ID. NO. 5: 5′-TTGGCCAGAGTGCAAATGG-3′ and reverse: SEQ. ID. NO. 6 5′-[…]-3′) or the housekeeping 18S rRNA were utilized. SENP1 RNA levels were calculated using the TaqMan ABI PRISM 7900 Sequence Detector System (PE Applied Biosystems)."}, "[3]": {"test_system": "SENP1", "assay": "SENP1 mRNA levels by quantitative real-time PCR in PC-3 cells after androgen/cytokine treatment", "format": "cell-based", "settings": "24 hr", "experimental": "as §1, §2, §3"}, "[4]": {"test_system": "PSA", "assay": "PSA ELISA assay, secreted PSA of LNCaP cells", "format": "cell-based, human", "settings": "for Increase in PSA levels as compared to control: LNCaP, R1881 20 nM, IL-6 25 ng/mL, or both, 24 hr", "experimental": "as §1\n(§4) PC-3 and LNCaP cells were grown in 24-well plates. Cells were transfected with the oligos (40 pmol/well) or siRNA plasmid (200 ng) for one (for PC-3) or three times within 12 hour intervals (for LNcaP) using lipfectamine 2000 (Invitrogen). PSA ELISA or Luciferase assays were used for analysis.\nFor assessment of PSA, the PSA ELISA assay kit was purchased from MP Biomedicals (Orangeburg, N.Y.) and performed according to manufacturer's instruction. Using a microtiter plate reader, the ng/mL concentration of the cell samples was calculated from the standard curve."}, "[5]": {"test_system": "AR", "assay": "ARE-luciferase reporter assay of AR-dependent transcription with co-transfected SENP1", "format": "cell-based", "settings": "PC-3 cells, in the presence of bicalutamide", "experimental": "as §4\nLuciferase reporter gene assays were used to examine whether SENP1 could affect AR-dependent transcription. […] This effect was dependent on the presence of AR ligand, R1881. […] Even at very low levels of cotransfected DNA, SENP1 induced AR transactivation. […] As the antagonists of androgen can also bind to the AR, the inventors tested whether SENP1 could act on antagonist-bound AR. […] SENP1 and SENP1 mutant were expressed at similar levels (FIG. 9E) and SENP1 and SENP2 were also expressed similarly (FIG. 9F)."}},
  "data": [
    {"compound": "CC(/C=C/C(=O)NO)=C\\[C@@H](C)C(=O)c1ccc(N(C)C)cc1", "note": "[TSA]", "values": [
      {"measurement": "SENP1 induction of cyclin D1 promoter activity", "setting": "[1]", "value": "decreased by TSA in a dose-dependent manner"}
    ]},
    {"compound": "C[C@]1(O)CC[C@H]2[C@@H]3CCC4=CC(=O)CCC4=C3C=C[C@@]21C", "note": "[R1881]", "values": [
      {"measurement": "SENP1 levels with increasing R1881 concentration", "setting": "[2]; 24 hr", "value": "increasing R1881 concentration elevates SENP1 levels"},
      {"measurement": "SENP1 expression enhanced (mRNA, QRT-PCR)", "setting": "[2]; 24 hr", "value": 5, "unit": "fold"},
      {"measurement": "SENP1 expression enhanced (mRNA, QRT-PCR)", "setting": "[2]; 48 hr", "value": 7, "unit": "fold"},
      {"measurement": "Increase in SENP1 levels", "setting": "[2]; 24 hr", "value": "~5", "unit": "fold"},
      {"measurement": "SENP1 expression on R1881 treatment", "setting": "[3]; R1881 30 nM", "value": "unaltered"},
      {"measurement": "Concentration of secreted PSA protein in the cultural medium", "setting": "[4]; LNCaP cells, R1881", "value": "increased"},
      {"measurement": "Increase in PSA levels as compared to control", "setting": "[4]", "value": 5.6, "unit": "fold"}
    ]},
    {"compound": "CC(O)(CS(=O)(=O)c1ccc(F)cc1)C(=O)Nc1ccc(C#N)c(C(F)(F)F)c1", "note": "(centres unmarked) [bicalutamide]", "values": [
      {"measurement": "Effect of SENP1 on AR-dependent transcription with antagonist-bound AR", "setting": "[5]", "value": "no effect"}
    ]},
    {"compound": "TNF-α", "values": [
      {"measurement": "SENP1 levels on cytokine treatment", "setting": "[2]", "value": "not"}
    ]},
    {"compound": "IL-6: cytokine that promotes activation of AR-dependent transcription via MAPK and JAK/STAT pathways", "values": [
      {"measurement": "SENP1 levels on cytokine treatment", "setting": "[2]", "value": "enhanced"},
      {"measurement": "Increase in SENP1 levels", "setting": "[2]; 24 hr", "value": "~5", "unit": "fold"},
      {"measurement": "SENP1 levels on cytokine treatment", "setting": "[3]; IL-6 25 ng/mL", "value": "unchanged"},
      {"measurement": "Increase in PSA levels as compared to control", "setting": "[4]", "value": 2.2, "unit": "fold"}
    ]}
  ]
}
